Results as given in patent publication US10413505B1, “Pharmaceutical compositions and methods of using the same” (priority 2017, dated 2019).

Columns and labels:
[1] = Example 2 plasma pharmacokinetics, normal renal function vs severe renal impairment; settings: all samples in all individuals except four samples in one subject; Example 2
[2] = Example 3 plasma pharmacokinetics, normal hepatic function vs hepatic impairment
[3] = plasma, subjects with hepatic impairment, single intranasal dose

## COC(=O)[C@H]1[C@@H](OC(=O)c2ccccc2)C[C@@H]2CC[C@H]1N2 [norcocaine]
[1]
  plasma concentration (below the LLOQ): < 0.1 ng/mL
[2]; all subjects with normal hepatic function, all time points
  plasma concentration (not measurable, below LLOQ): < 0.1 ng/mL
[2]; multiple time points in three Grade B impaired subjects
  plasma concentration, low levels detected: ≤ 0.31 ng/mL
[2]; [3]
  AUC0→t (Geometric mean): 0.753 ng·h/mL
  AUC0→t (Mean): 0.950 ng·h/mL
  AUC0→t (Median): 0.788 ng·h/mL
  Clast (Geometric mean): 0.126 ng/mL
  Clast (Mean): 0.127 ng/mL
  Clast (Median): 0.126 ng/mL
  Cmax (Geometric mean): 0.219 ng/mL
  Cmax (Mean): 0.227 ng/mL
  Cmax (Median): 0.212 ng/mL
  Tlast (Geometric mean): 5.24 h
  Tlast (Mean): 6.33 h
  Tlast (Median): 4.00 h
  Tmax (Geometric mean): 1.50 h
  Tmax (Mean): 1.50 h
  Tmax (Median): 1.50 h
  t1/2 (Geometric mean): 5.07 h
  t1/2 (Mean): 6.23 h
  t1/2 (Median): 6.23 h
[2]; single time point (7 min) in one Grade B subject
  plasma concentration: 0.354 ng/mL
